Data set [1] deals with T1, mGluR5 (Rattus norvegicus, UniProt P31424). The conditions noted are these: background, literature; cited from earlier work.
For data set [2] the following is noted: rats; background, literature; cited from earlier work.
The target in data set [3] is T1, mGluR5. As to the kind of experiment: ex vivo brain distribution with MTEP blockade (gamma counter). The data set is classed as in vivo, Rats. Also noted: from tissue; host or cells: rat brain regions after in vivo injection. The note with it: 45 min after injection. On the procedure:
Rats were pre-injected (tail vein) with 10 mg/kg MTEP (a specific mGluR5 antagonist) before [^18F]PSS232 injection (= blockade, see green, right bars in Fig. 10) or they were pre-injected with vehicle (= baseline, see blue, left, bars in Fig. 10).

Data set [4] concerns the target T1, mGluR5. As to the kind of experiment: PET scan of rat brain, kinetic behavior (ratio of specifically bound to free ligand). The data set is classed as in vivo, Wistar rat. Also noted: from tissue; host or cells: brain of living male Wistar rat (in vivo PET). The conditions noted are these: tail vein injection. On the procedure: A male Wistar rat (423 g) was injected 23.1 MBq [^18F]PSS232 into a tail vein and PET was acquired from 0 to 90 min post injection. […] Only brain is shown. SUV denotes standardized uptake value.
PET scans analogous to those of Example 3 were recorded after administration of [^18F]PSS232 (Fig. 7, red curves, circles and diamonds), [^11C]ABP688 (Fig. 7, black curves, squares and triangles) and [^18F]FDEGPECO (Fig. 7, blue curves, crosses and crossed bars).
Fig. 9 illustrates the favorable kinetic behavior of PSS232. The ratio of specifically bound PSS232 in caudate putamen (striatum) to free ligand PSS232 (radioactivity in cerebellum is considered to originate from free ligand) becomes constant at about 40 min after injection, thus allowing the estimation of the binding potential (BP). This is an advantage over [^11C]ABP688 where the equilibrium is not reached within 60 min and the short physical half-life of ^11C (20 min) limits the scan duration.

The target in the next data set is T2, rat mGluR5 (Rattus norvegicus, UniProt P31424).
T2 construct: displacement assay with rat brain membranes and 1.6 nM [^3H]ABP688; from tissue; host or cells: rat brain membranes
T2 sequence (P31424 21-1203): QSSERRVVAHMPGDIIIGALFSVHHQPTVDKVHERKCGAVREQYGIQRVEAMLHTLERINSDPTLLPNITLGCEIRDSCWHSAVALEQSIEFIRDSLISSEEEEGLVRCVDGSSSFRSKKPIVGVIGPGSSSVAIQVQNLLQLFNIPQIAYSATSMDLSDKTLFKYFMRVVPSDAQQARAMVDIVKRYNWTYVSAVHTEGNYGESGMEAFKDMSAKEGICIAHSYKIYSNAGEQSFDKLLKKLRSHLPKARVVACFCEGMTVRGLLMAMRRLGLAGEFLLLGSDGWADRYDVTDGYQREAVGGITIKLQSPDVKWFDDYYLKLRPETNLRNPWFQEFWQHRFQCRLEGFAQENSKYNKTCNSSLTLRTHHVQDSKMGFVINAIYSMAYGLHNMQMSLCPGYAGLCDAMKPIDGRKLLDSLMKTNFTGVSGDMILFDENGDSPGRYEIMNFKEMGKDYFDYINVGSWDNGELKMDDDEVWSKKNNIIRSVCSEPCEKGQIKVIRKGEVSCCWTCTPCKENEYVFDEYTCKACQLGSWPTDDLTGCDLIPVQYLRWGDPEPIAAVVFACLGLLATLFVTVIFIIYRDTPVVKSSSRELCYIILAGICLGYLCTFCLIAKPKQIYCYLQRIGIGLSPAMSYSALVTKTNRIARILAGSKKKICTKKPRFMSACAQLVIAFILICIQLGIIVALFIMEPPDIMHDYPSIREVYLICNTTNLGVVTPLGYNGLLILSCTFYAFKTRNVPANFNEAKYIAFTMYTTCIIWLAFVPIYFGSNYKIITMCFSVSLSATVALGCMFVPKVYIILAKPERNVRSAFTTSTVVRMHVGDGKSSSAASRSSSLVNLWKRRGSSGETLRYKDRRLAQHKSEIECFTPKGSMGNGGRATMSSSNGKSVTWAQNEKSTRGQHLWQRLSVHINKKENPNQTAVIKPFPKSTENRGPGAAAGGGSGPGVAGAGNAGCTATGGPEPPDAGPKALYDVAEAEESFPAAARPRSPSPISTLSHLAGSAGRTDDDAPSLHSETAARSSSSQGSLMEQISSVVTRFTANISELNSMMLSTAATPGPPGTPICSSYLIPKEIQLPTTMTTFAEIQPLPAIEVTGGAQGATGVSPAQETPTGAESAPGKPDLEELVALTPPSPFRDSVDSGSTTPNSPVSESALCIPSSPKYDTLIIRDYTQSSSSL
Put plainly: displacement assay with rat brain membranes and [^3H]ABP688. The data set is classed as binding. The note with it: radioligand of the displacement assay, used at 1.6 nM, rat brain membranes.

Data set [5] has as its target T1, mGluR5. Put plainly: in vitro autoradiography of rat brain slices. It counts as binding. The arrangement: from tissue; host or cells: brain of living animal (in vivo PET, tail vein injection). The conditions noted are these: about 1 nM tracer, 20 µm slices; compared with 100 nM ABP688 (mGluR5 ligand) or JNJ16259685 (mGluR1 ligand). On the procedure: In Fig. 4 two rat brain slices (20 µm) each were incubated with about 1 nM [^18F]PSS232 in the absence of any unlabeled compound (top) or with 100 nM of the specific mGluR5 ligand ABP688 (middle) or of mGluR1 ligand JNJ16259685 (bottom). […] It should be noted that mGluR1 is the receptor with most similar amino acid sequence to mGluR5.

The target of data set [6] is T1, mGluR5. Put plainly: ex vivo brain distribution after MMPEP pre-injection at various doses (receptor occupancy). The note with it: estimated from fit of MMPEP dose curve; 45 min after injection.
The conditions of data set [7]: rodents; background; cited from earlier work.
The conditions of data set [8]: monkeys; background; cited from earlier work.
The conditions of data set [9]: humans; background, relative to rodents and monkeys; cited from earlier work.
Data set [10] is described as follows: defluorination in vivo in rats.
A short description of data set [11]: defluorination by human liver microsomes. It counts as in vitro ADME.
Data set [12] can be described thus: defluorination by rat liver microsomes. It counts as in vitro ADME. (Microsomes from liver hold many membrane-bound enzymes, among them those of drug oxidation.)
Data set [13] is described as follows: defluorination by human S9 fraction of liver homogenate. It counts as in vitro ADME.

Where two headings read alike, the source gives them in different places.

A word on the Kd: it is the equilibrium constant for the complex coming apart. Read a low Kd as a tighter complex.

T1 sequence (P31424 21-1203): as above

For the compound `[18F]CCOCCO/N=C1/C=C(C#Cc2ccccn2)CCC1` [[^18F]FDEGPECO, (E)-3-(Pyridin-2-ylethynyl)-cyclohex-2-enone-O-2-(2-^18F-fluoroethoxy)ethyl oxime], the “mean residence time at the target site” value at mGluR5 [1] is reported as “relatively short”.
As for `[18F]CCCOCCO/N=C1/C=C(C#Cc2ccccn2)CCC1` [[^18F]PSS223, (E)-3-(pyridin-2-ylethynyl)cyclohex-2-enone O-(2-(3-^18F-fluoropropoxy)ethyl) oxime], the defluorination in vivo entry in data set [2] is on record as “rapid defluorination”.
As for MTEP, the “radioactivity of brain regions after MTEP pre-injection” value at mGluR5 [3] (10 mg/kg MTEP tail vein before [^18F]PSS232) was “all brain regions have similar radioactivity as in cerebellum”.
With `Cc1cccc(C#CC2=C/C(=N/O[11CH3])CCC2)n1` [[^11C]ABP688, (E)-3-((6-methylpyridin-2-yl)ethynyl)cyclohex-e-enone-O-^11C-methyl oxime], at mGluR5 [4], the “time after injection at which ratio of specifically bound (caudate putamen/striatum) to free ligand (cerebellum) becomes constant (equilibrium)” value was above 60 min.
For the compound `CON=C1C=C(C#Cc2cccc(C)n2)CCC1` [[^3H]ABP688], on rat mGluR5, the Kd turned out to be 1.7 nM.
With `FCCOCCCO/N=C1/C=C(C#Cc2ccccn2)CCC1` [[^18F]PSS232, (E)-3-(pyridin-2-ylethynyl)-cyclohex-2-enone O-(3-(2-fluoroethoxy)propyl) oxime], on mGluR5 [3] (baseline (vehicle) vs blockade with 10 mg/kg MTEP), the “average specific binding in striatum” value is 86.6%. Besides, the “accumulation in mGluR5-rich domains of rat brain slices” value at mGluR5 [5] was “high, mGluR5-selective accumulation”. For the same compound, the “maximal specific binding in striatum” value on mGluR5 [6] is recorded as 78.5%.
Consider `N#Cc1cc(F)cc(C#Cc2csc(C[18F])n2)c1` [[^18F]-SP203], for which the defluorination result was “significant defluorination” in data set [7], “significant defluorination” in [8] and “to a lesser extent” in [9].
For `FCCOCCCO/N=C1/C=C(C#Cc2ccccn2)CCC1` [PSS232, (E)-3-(pyridin-2-ylethynyl)-cyclohex-2-enone O-(3-(2-fluoroethoxy)propyl) oxime], the defluorination in vivo result in data set [10] is “does not show significant defluorination”. Further, the defluorination entry in [11], in data set [12] and in [13] was “not significantly defluorinated” each time. Further, the “time after injection at which ratio of specifically bound (caudate putamen/striatum) to free ligand (cerebellum) becomes constant (equilibrium)” value at mGluR5 [4] was “about 40 min”.

(Values after patent publication EP2671872A1, “Fluorinated pyridylacetylene derivatives as tracers” (Eidgenössische Technische Hochschule Zürich (ETH), priority 2012, dated 2013).)
